In patent US20240391931A1 (Bristol-Myers Squibb Company, priority 2021, published 2024):

Key:
HER2 = biological target: T1, HER2 (Homo sapiens, UniProt P04626); test: HER2 occupancy assay in BT474 cells; format: cell-based; conditions: concentration at which 50% of HER2 is irreversible bound, read-out: BT474 HER2 Occ
T1 construct: BT474 and N87 cell lines which endogenously overexpress the HER2 wildtype (WT) protein; endogenous in cells; host or cells: BT474, N87
Procedure: In order to assess free HER2 protein, a biotinylated probe was utilized. BT474, N87, and Ba/F3-HER2YVMA cells were treated with test compound as described for HER2 signaling. After compound treatment, cells were washed three times with cold phosphate buffer saline (PBS, Life Technologies, Carlsbad, CA), and lysed in modified occupancy lysis buffer prepared with an irreversible biotinylated tool compound (1 μM) in 25 mM Tris pH 7.5, 150 mM NaCl, 1% Triton, and supplemented with cOmplete, EDTA-free Protease inhibitor cocktail (Roche), Phosphatase Inhibitor Cocktails 2 and 3 (Sigma-Aldrich), and 1 mM PMSF (Sigma-Aldrich).
To determine % occupancy, lysates were loaded into duplicate plates of the phospho (Tyr1248)/total ErbB2 whole cell lysate MSD kit (Meso-Scale Discovery) and incubated overnight. Plates were washed and incubation with either HER2-sulfoTag (1:50, Meso Scale Discovery) or Strep-Sulfo Tag (1:1000, Meso Scale Discovery), for detection of […]. A standard curve of untreated cells in serial dilution was included in each plate to independently fit streptavidin (Free HER2) and total HER2 MSD signals; non-specific signal (BSA control spots) was subtracted from each well. Free HER2 was then normalized by total HER2 for each sample. The results are reported as % DMSO control. The normalized data was fitted using a sigmoidal curve analysis program (Graph Pad Prism version 6) with variable Hill slope to determine EC50 values. The results are provided in Table 4, under columns titled “BT474-HER2 Occ”, “N87-HER2 Occ”, and “Ba/F3 YVMA-HER2 Occ”. HER2 Occ is the concentration of test compound at which 50% of HER2 is irreversible bound.

HER2YVMA = HER2YVMA (Homo sapiens, UniProt P04626, INS775YVMA); test: HER2 signaling (pHER2) in BEAS2B-HER2YVMA cells; format: cell-based; set-up: expressed in transfected cells; host or cells: HEK293 (pool), Ba/F3 (clones), BEAS2B (clones); lentiviral vector pCDH-CMV-MCS-EF1-Neo; conditions: read-out: BEAS2B YVMA pHER2 EC50
Procedure: Cell culture, plasmid cloning, and lentiviral transduction were carried out according to standard procedures. The Human HER2 cDNA construct in pCMV6-Entry for the HER2 wildtype (WT) expression was obtained from Origene. The HER2 cDNA including the 12-nucleotide insertion corresponding to YVMA insertion (HER2YVMA) was codon optimized, synthesized and cloned by GenScript (Piscataway, NJ) in pcDNA3.1. The lentiviral constructs expressing HER2YVMA and HER2 WT were sub-cloned using PCR at System Biosciences (SBI, Mountainview, CA) into lentiviral vectors pCDH-CMV-MCS-EF1-Neo and lentiviral particles were generated.
Engineered lines expressing HER2YVMA and HER2 WT were prepared in HEK293 (human embryonic kidney cells), Ba/F3 (Interleukin 3 (IL3)-dependent murine pro B cell line), and BEAS2B (primary immortalized human bronchial epithelial cell line). […]
HER2 signaling was assessed in BT474 and N87 cell lines which endogenously overexpress the HER2 wildtype (WT) protein, in NCI-H1781 cells which endogenously expresses a HER2 mutant protein containing a VC insertion in the kinase domain (HER2VC or G776delinsVC), and in engineered cell lines transduced to express the Her2 mutant protein containing the YVMA insertion (Hek293-HER2YVMA and BEAS2B-HER2YVMA). […]
HER2 signaling was evaluated using phospho (Tyr1248)/total ErbB2 whole cell lysate MSD plates (Meso-Scale Discovery, Gaithersburg, MD). […]

T1 sequence (P04626 23-1255): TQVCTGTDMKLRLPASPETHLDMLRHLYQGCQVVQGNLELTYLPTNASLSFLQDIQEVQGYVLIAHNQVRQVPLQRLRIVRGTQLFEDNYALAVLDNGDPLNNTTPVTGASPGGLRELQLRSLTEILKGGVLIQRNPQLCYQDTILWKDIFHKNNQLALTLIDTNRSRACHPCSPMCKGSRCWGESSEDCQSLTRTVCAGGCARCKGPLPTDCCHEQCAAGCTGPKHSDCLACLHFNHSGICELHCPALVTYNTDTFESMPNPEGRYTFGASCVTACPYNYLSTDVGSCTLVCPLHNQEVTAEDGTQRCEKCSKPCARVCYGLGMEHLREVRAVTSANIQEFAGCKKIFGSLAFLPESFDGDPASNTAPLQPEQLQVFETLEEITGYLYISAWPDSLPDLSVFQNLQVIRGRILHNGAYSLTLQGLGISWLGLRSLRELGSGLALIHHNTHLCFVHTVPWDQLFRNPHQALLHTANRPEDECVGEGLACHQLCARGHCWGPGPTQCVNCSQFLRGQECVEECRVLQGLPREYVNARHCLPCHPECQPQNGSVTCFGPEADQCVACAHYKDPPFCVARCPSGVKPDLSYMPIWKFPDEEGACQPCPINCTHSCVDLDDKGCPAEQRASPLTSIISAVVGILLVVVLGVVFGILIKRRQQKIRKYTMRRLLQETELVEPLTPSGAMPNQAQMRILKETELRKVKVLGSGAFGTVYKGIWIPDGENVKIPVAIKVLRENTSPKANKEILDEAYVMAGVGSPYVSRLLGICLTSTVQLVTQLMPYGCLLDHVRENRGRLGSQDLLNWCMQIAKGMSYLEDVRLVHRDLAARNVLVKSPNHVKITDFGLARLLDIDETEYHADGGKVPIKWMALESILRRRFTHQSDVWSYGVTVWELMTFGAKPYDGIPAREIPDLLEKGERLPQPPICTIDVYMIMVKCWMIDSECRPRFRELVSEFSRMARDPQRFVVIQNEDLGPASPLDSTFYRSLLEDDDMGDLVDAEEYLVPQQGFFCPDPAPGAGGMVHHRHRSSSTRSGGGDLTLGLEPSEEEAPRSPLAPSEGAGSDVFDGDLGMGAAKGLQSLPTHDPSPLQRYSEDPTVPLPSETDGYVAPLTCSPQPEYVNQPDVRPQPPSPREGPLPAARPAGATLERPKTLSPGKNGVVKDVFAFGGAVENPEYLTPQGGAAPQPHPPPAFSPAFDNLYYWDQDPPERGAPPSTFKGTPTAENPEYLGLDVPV
Sequence of HER2YVMA (P04626 with tags, fused parts or gaps INS775YVMA): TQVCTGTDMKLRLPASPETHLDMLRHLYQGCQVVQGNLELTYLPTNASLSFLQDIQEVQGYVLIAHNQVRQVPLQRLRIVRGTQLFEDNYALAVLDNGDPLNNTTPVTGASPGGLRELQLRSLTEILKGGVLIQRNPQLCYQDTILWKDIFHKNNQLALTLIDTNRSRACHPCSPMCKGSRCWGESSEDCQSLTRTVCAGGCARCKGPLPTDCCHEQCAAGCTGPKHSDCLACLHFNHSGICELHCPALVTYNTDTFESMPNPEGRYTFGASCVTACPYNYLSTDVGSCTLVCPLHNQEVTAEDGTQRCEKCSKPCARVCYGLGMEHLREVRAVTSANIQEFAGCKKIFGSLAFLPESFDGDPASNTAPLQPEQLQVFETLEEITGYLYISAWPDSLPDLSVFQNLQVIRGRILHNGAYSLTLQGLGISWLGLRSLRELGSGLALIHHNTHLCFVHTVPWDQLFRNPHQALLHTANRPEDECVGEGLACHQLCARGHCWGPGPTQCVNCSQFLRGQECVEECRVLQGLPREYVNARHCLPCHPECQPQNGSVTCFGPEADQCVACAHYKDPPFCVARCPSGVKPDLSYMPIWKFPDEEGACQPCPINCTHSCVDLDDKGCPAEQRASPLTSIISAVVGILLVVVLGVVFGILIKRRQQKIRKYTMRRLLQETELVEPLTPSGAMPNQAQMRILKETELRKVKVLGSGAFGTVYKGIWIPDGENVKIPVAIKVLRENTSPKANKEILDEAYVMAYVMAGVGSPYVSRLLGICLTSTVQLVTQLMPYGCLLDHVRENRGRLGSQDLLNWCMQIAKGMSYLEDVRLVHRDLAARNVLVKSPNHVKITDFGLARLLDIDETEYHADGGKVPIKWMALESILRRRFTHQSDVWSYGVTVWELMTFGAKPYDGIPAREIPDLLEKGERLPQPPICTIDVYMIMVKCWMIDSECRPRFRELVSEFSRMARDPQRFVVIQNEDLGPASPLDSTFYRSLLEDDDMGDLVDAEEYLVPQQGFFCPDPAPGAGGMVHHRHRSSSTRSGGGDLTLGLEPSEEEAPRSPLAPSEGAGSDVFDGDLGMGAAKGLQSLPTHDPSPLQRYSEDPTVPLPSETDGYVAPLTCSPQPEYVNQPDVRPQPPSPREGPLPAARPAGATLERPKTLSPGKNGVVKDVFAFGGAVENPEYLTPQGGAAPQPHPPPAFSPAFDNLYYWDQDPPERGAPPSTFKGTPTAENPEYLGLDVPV

SMILES | EC50 (HER2) [nM] | EC50 (HER2YVMA) [nM]
Cc1cc(Nc2ncnc3sc4c(c23)CCN(C(=O)/C=C/CN2CCOCC2)C4)ccc1Oc1ccc2ncnn2c1 [Compound 12] | < 100 | 
Cc1ccc(Oc2ccc(Nc3ncnc4sc5c(c34)CCN(C(=O)/C=C/CN(C)C)C5)cc2C)cn1 [Compound 8, (E)-4-(Dimethylamino)-1-(4-((3-methyl-4-((6-methylpyridin-3-yl)oxy)phenyl)amino)-5,6-dihydropyrido[4′,3′:4,5]thieno[2,3-d]pyrimidin-7(8H)-yl)but-2-en-1-one] | < 100 | < 100
